From BigSolDB 2.1

c1ccc(-c2ccc(C(c3ccccc3)n3ccnc3)cc2)cc1 (stereo unspecified)
Details | solubility (mole fraction)
in DMF, 283.17 K | 0.0149
in DMF, 288.13 K | 0.0177
in DMF, 293.15 K | 0.0208
in DMF, 298.18 K | 0.0245
in DMF, 303.14 K | 0.029
in DMF, 308.09 K | 0.0341
in DMF, 313.25 K | 0.0403
in DMF, 318.13 K | 0.0482
in DMF, 323.18 K | 0.0565
in acetonitrile, 283.24 K | 0.00109
in acetonitrile, 288.17 K | 0.0014
in acetonitrile, 293.15 K | 0.00176
in acetonitrile, 298.14 K | 0.00221
in acetonitrile, 303.08 K | 0.00277
in acetonitrile, 308.13 K | 0.00347
in acetonitrile, 313.16 K | 0.00439
in acetonitrile, 318.14 K | 0.00541
in acetonitrile, 323.11 K | 0.00682
in ethanol, 283.15 K | 0.0028
in ethanol, 288.18 K | 0.00342
in ethanol, 293.13 K | 0.00407
in ethanol, 298.15 K | 0.00512
in ethanol, 303.17 K | 0.0064
in ethanol, 308.14 K | 0.00782
in ethanol, 313.15 K | 0.00965
in ethanol, 318.2 K | 0.0122
in ethanol, 323.14 K | 0.0151
in ethyl acetate, 283.16 K | 0.00238
in ethyl acetate, 288.14 K | 0.00305
in ethyl acetate, 293.17 K | 0.00385
in ethyl acetate, 298.13 K | 0.00471
in ethyl acetate, 303.18 K | 0.00579
in ethyl acetate, 308.12 K | 0.00724
in ethyl acetate, 313.1 K | 0.00892
in ethyl acetate, 318.13 K | 0.0113
in ethyl acetate, 323.1 K | 0.0139
in isobutanol, 283.14 K | 0.00308
in isobutanol, 288.17 K | 0.0041
in isobutanol, 293.13 K | 0.00528
in isobutanol, 298.12 K | 0.00659
in isobutanol, 303.16 K | 0.00865
in isobutanol, 308.15 K | 0.0114
in isobutanol, 313.19 K | 0.0148
in isobutanol, 318.14 K | 0.0197
in isobutanol, 323.16 K | 0.0256
in isopentanol, 283.13 K | 0.00402
in isopentanol, 288.17 K | 0.00512
in isopentanol, 293.07 K | 0.00652
in isopentanol, 298.14 K | 0.00831
in isopentanol, 303.17 K | 0.0105
in isopentanol, 308.13 K | 0.0133
in isopentanol, 313.18 K | 0.0171
in isopentanol, 318.15 K | 0.0216
in isopentanol, 323.24 K | 0.0281
in isopropanol, 283.16 K | 0.00137
in isopropanol, 288.14 K | 0.00173
in isopropanol, 293.15 K | 0.0022
in isopropanol, 298.18 K | 0.00285
in isopropanol, 303.17 K | 0.00362
in isopropanol, 308.13 K | 0.00472
in isopropanol, 313.16 K | 0.00605
in isopropanol, 318.1 K | 0.00802
in isopropanol, 323.14 K | 0.0105
in methyl acetate, 283.12 K | 0.00263
in methyl acetate, 288.14 K | 0.00334
in methyl acetate, 293.15 K | 0.00413
in methyl acetate, 298.19 K | 0.00509
in methyl acetate, 303.17 K | 0.00618
in methyl acetate, 308.14 K | 0.0076
in methyl acetate, 313.18 K | 0.00926
in methyl acetate, 318.15 K | 0.0111
in methyl acetate, 323.13 K | 0.013
in n-butanol, 283.15 K | 0.00386
in n-butanol, 288.19 K | 0.00509
in n-butanol, 293.16 K | 0.00645
in n-butanol, 298.14 K | 0.00808
in n-butanol, 303.15 K | 0.01
in n-butanol, 308.23 K | 0.0132
in n-butanol, 313.11 K | 0.0163
in n-butanol, 318.18 K | 0.0203
in n-butanol, 323.14 K | 0.0257
in n-butyl acetate, 283.13 K | 0.00191
in n-butyl acetate, 288.16 K | 0.00233
in n-butyl acetate, 293.14 K | 0.00285
in n-butyl acetate, 298.19 K | 0.00345
in n-butyl acetate, 303.15 K | 0.00434
in n-butyl acetate, 308.18 K | 0.00527
in n-butyl acetate, 313.14 K | 0.00676
in n-butyl acetate, 318.13 K | 0.00835
in n-butyl acetate, 323.15 K | 0.0109
in n-pentanol, 283.1 K | 0.00445
in n-pentanol, 288.13 K | 0.00581
in n-pentanol, 293.15 K | 0.00739
in n-pentanol, 298.19 K | 0.00941
in n-pentanol, 303.16 K | 0.0117
in n-pentanol, 308.14 K | 0.0149
in n-pentanol, 313.17 K | 0.0184
in n-pentanol, 318.16 K | 0.0234
in n-pentanol, 323.12 K | 0.029
in n-propanol, 283.12 K | 0.00381
in n-propanol, 288.14 K | 0.00458
in n-propanol, 293.15 K | 0.00585
in n-propanol, 298.18 K | 0.00719
in n-propanol, 303.16 K | 0.00909
in n-propanol, 308.21 K | 0.0115
in n-propanol, 313.16 K | 0.0143
in n-propanol, 318.19 K | 0.0172
in n-propanol, 323.17 K | 0.0211
in n-propyl acetate, 283.15 K | 0.00215
in n-propyl acetate, 288.16 K | 0.00261
in n-propyl acetate, 293.09 K | 0.00342
in n-propyl acetate, 298.14 K | 0.00433
in n-propyl acetate, 303.15 K | 0.00541
in n-propyl acetate, 308.17 K | 0.00683
in n-propyl acetate, 313.11 K | 0.0087
in n-propyl acetate, 318.16 K | 0.0106
in n-propyl acetate, 323.1 K | 0.0131
in sec-butanol, 283.13 K | 0.00212
in sec-butanol, 288.16 K | 0.00286
in sec-butanol, 293.14 K | 0.0037
in sec-butanol, 298.17 K | 0.00503
in sec-butanol, 303.15 K | 0.00647
in sec-butanol, 308.12 K | 0.00841
in sec-butanol, 313.19 K | 0.011
in sec-butanol, 318.16 K | 0.0145
in sec-butanol, 323.15 K | 0.0183
